# According to US8637511B2, “Aminopyrimidines useful as kinase inhibitors” (Vertex Pharmaceuticals Incorporated, priority 2005, dated 2014):
# Read-outs that look alike come from different tables or passages of the source.
# Tests used:
# human Itk kinase = target: T1, human Itk kinase (Homo sapiens, UniProt Q08881); assay: Itk inhibition assay: radioactivity-based assay; type: biochemical; conditions: Ki(app)
# T1 sequence (Q08881 1-620): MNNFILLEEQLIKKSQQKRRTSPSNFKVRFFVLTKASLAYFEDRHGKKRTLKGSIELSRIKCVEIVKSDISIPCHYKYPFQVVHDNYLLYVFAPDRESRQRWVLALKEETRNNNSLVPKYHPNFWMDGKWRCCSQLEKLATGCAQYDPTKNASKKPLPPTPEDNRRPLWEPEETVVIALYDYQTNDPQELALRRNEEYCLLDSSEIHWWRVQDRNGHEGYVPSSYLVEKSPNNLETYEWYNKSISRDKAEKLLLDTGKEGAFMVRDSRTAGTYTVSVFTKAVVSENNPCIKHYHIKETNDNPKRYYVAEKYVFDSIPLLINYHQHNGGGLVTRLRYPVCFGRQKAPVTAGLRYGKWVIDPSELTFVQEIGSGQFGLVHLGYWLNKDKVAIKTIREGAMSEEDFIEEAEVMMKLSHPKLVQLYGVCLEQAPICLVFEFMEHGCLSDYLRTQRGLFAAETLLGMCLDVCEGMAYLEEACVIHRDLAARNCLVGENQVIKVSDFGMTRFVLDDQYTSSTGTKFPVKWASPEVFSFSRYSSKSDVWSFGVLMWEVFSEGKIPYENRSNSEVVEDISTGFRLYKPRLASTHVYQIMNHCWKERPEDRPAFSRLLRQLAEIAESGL
# Procedure: The compounds of the present invention were evaluated as inhibitors of human Itk kinase using a radioactivity-based assay. These compounds can also be evaluated using a spectrophotometric or alphascreen assay.
# Assays were carried out in a mixture of 20 mM MOPS (pH 7.0), 10 mM MgCl2, 0.1% BSA and 1 mM DTT. Final substrate concentrations in the assay were 7.5 μM [γ-^33P]ATP (400 μCi ^33P ATP/μmol ATP, Amersham Pharmacia Biotech/Sigma Chemicals) and 3 μM peptide (SAM68 protein Δ332-443). Assays were carried out at 25° C. in the presence of 50 nM Itk. An assay stock buffer solution was prepared containing all of the reagents listed above, with the exception of ATP and the test compound of interest. 50 μL of the stock solution was placed in a 96 well plate followed by addition of 2 μL of DMSO stock containing serial dilutions of the test compound (typically starting from a final concentration of 50 μM with 2-fold serial dilutions) in duplicate (final DMSO concentration 2%). The plate was pre-incubated for 10 minutes at 25° C. and the reaction initiated by addition of 50 μL [γ-^33P]ATP (final concentration 7.5 μM).
# The reaction was stopped after 10 minutes by the addition of 100 μL 0.2M phosphoric acid+0.01% TWEEN 20. A multiscreen phosphocellulose filter 96-well plate (Millipore, Cat no. MAPHNOB50) was pretreated with 100 μL 0.2M phosphoric acid+0.01% TWEEN 20 prior to the addition of 170 μL of the stopped assay mixture. The plate was washed with 4×200 μL 0.2M phosphoric acid+0.01% TWEEN 20. After drying, 30 μL Optiphase ‘SuperMix’ liquid scintillation cocktail (Perkin Elmer) was added to the well prior to scintillation counting (1450 Microbeta Liquid Scintillation Counter, Wallac).
# Ki(app) data were calculated from non-linear regression analysis of the initial rate data using the Prism software package (GraphPad Prism version 3.0cx for Macintosh, GraphPad Software, San Diego Calif., USA).
# JAK3 = target: T2, JAK3 (Homo sapiens, UniProt P52333); assay: biochemical
# T2 sequence (P52333 1-1124): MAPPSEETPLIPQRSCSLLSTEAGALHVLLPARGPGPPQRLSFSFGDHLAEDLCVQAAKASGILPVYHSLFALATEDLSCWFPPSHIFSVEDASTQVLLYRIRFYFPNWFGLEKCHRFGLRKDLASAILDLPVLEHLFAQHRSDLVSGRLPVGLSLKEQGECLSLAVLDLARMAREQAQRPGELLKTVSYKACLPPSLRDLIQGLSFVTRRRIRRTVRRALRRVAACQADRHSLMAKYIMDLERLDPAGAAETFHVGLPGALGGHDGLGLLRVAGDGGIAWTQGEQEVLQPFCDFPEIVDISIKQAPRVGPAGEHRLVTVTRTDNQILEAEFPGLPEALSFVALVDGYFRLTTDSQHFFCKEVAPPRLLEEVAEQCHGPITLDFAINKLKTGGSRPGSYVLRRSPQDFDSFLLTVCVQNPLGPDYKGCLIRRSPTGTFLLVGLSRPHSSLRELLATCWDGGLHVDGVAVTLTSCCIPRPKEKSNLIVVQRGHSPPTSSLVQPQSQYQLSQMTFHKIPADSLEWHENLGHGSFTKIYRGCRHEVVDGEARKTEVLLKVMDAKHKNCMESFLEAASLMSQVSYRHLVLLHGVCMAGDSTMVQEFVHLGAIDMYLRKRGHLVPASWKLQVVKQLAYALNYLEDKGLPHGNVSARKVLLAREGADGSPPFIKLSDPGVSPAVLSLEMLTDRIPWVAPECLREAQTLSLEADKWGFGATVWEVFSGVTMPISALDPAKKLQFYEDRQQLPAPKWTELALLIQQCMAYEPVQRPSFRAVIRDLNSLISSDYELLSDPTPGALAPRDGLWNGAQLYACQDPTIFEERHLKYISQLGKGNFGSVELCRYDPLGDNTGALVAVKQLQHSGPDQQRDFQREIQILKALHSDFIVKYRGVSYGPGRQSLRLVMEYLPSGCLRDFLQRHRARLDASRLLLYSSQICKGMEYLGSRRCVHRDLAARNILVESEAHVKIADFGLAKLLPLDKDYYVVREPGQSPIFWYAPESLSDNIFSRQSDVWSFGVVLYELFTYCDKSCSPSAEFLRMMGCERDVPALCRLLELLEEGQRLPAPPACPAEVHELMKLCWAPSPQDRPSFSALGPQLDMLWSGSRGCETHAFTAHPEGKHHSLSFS
# Colo205 cells = assay: Analysis of cell proliferation and viability; type: cell-based; conditions: Homo sapiens, read-out: IC50 value
# [1] = COLO 205, Colo205 cells, incubated for 96 hours
# [2] = COLO 205, Colo205 cells, incubated for 72 hours
Structure (SMILES),Ki (human Itk kinase),Ki (JAK3),IC50 (Colo205 cells; [1]),Ki (JAK3; read-out: JAK3 Ki value),IC50 (Colo205 cells; [2]),"IC50 (Colo205 cells; COLO 205, 96 h)"
Cc1cnc(Nc2cc(N3CC(N)C3)nc(Sc3ccc(NC(=O)C4CC4)cc3)n2)s1 [Compound 2],100 to 1000 nM,500 to 2000 nM,50 to 1000 nM,–,–,–
Cc1cc(Nc2cc(N3CCC3)nc(Sc3ccc(NC(=O)c4ccc(F)cc4F)cc3)n2)n[nH]1 [Compound 44],100 to 1000 nM,–,50 to 1000 nM,10 to 500 nM,–,–
Cc1cc(Nc2cc(N3CC(OC(C)(C)C)C3)nc(Sc3ccc(NC(=O)c4ccccc4Cl)cc3)n2)[nH]n1 [Compound 66],100 to 1000 nM,10 to 500 nM,50 to 1000 nM,–,–,–
Cc1cc(Nc2cc(N3CCC3)nc(Sc3ccc(NC(=O)c4ccc(Cl)cc4Cl)cc3)n2)n[nH]1 [Compound 162],100 to 1000 nM,10 to 500 nM,50 to 1000 nM,–,–,–
CC1=NN=C(Nc2cc(N3CCC3)nc(Sc3ccc(NC(=O)c4cccc(Cl)c4F)cc3)n2)C1 [Compound 61],≤ 100 nM,–,50 to 1000 nM,10 to 500 nM,–,–
CC1=NN=C(Nc2cc(N3CCC3)nc(Sc3ccc(NC(=O)C4CCCN4C)cc3)n2)C1 (stereo not drawn) [Compound 6],100 to 1000 nM,–,50 to 1000 nM,–,–,–
Cc1cc(Nc2cc(N3CCC3)nc(Sc3ccc(NC(=O)c4ccc(Cl)cc4)cc3)n2)n[nH]1 [Compound 54],100 to 1000 nM,10 to 500 nM,50 to 1000 nM,–,–,–
Cc1cc(Nc2cc(N3CC(C#N)C3)nc(Sc3ccc(NC(=O)c4ccccc4Cl)cc3)n2)n[nH]1 [Compound 16],≤ 100 nM,10 to 500 nM,50 to 1000 nM,–,30 to 200 nM,–
Cc1cc(Nc2cc(N3CCC3)nc(Sc3ccc(N(C)C(=O)c4ccccc4F)cc3)n2)n[nH]1 [Compound 10],1000 to 2000 nM,10 to 500 nM,–,–,–,–
Cc1cc(Nc2cc(N3CCC3)nc(Sc3ccc(NC(=O)OC(C)(C)C)cc3)n2)n[nH]1 [Compound 26],1000 to 2000 nM,500 to 2000 nM,> 1000 nM,–,–,–
Cc1cc(Nc2cc(N3CCC3)nc(Sc3ccc(NC(=O)c4ocnc4C)cc3)n2)n[nH]1 [Compound 167],1000 to 2000 nM,10 to 500 nM,> 1000 nM,–,–,–
Cc1cc(Nc2cc(N3CCC3)nc(Sc3ccc(NC(=O)c4nccn4C)cc3)n2)n[nH]1 [Compound 166],1000 to 2000 nM,–,> 1000 nM,10 to 500 nM,–,–
CCC(=O)Nc1ccc(Sc2nc(Nc3cc(C)[nH]n3)cc(N3CC(O)C3)n2)cc1 [Compound 15],100 to 1000 nM,10 to 500 nM,50 to 1000 nM,–,–,–
Cc1cc(Nc2cc(N3CCC3)nc(Sc3ccc(NC(=O)c4c(F)cccc4N4CCC4)cc3)n2)n[nH]1 [Compound 8],100 to 1000 nM,10 to 500 nM,50 to 1000 nM,–,–,–
CCC(=O)Nc1ccc(Sc2nc(Nc3cc(C4CC4)n[nH]3)cc(N3CC(C)(O)C3)n2)cc1 [Compound 76],≤ 100 nM,≤ 10 nM,50 to 1000 nM,–,–,–
Cc1cc(Nc2cc(N3CCC3)nc(Sc3ccc(NC(=O)Cc4ccccc4)cc3)n2)n[nH]1 [Compound 35],100 to 1000 nM,500 to 2000 nM,50 to 1000 nM,–,–,–

Structure (SMILES),Ki (human Itk kinase),Ki (JAK3),IC50 (Colo205 cells; [1]),Ki (JAK3; read-out: JAK3 Ki value),IC50 (Colo205 cells; [2]),"IC50 (Colo205 cells; COLO 205, 96 h)"
CC1=NN=C(Nc2cc(N3CCC3)nc(Sc3ccc(NC(=O)c4ccccc4Cl)cc3)n2)C1 [Compound 5],100 to 1000 nM,–,50 to 1000 nM,10 to 500 nM,30 to 200 nM,–
Cc1cc(Nc2cc(N3CC(F)C3)nc(Sc3ccc(NC(=O)c4ccccc4Cl)cc3)n2)[nH]n1 [Compound 60],≤ 100 nM,10 to 500 nM,50 to 1000 nM,–,–,–
Cc1cc(Nc2cc(N3CCC3)nc(Sc3ccc(NC(=O)C4CC4)cc3)n2)n[nH]1 [Compound 17],100 to 1000 nM,10 to 500 nM,50 to 1000 nM,–,–,–
COC1CN(c2cc(Nc3cc(C)[nH]n3)nc(Sc3ccc(NC(=O)c4ccccc4Cl)cc3)n2)C1 [Compound 12],≤ 100 nM,≤ 10 nM,≤ 50 nM,–,–,–
Cc1cnc(Nc2cc(N3CC(O)C3)nc(Sc3ccc(NC(=O)C4CC4)cc3)n2)s1 [Compound 3],100 to 1000 nM,–,> 1000 nM,10 to 500 nM,–,–
Cc1cc(Nc2cc(N3CCC3)nc(Sc3cccc(NC(=O)c4ccccc4Cl)c3)n2)[nH]n1 [Compound 49],1000 to 2000 nM,–,> 1000 nM,10 to 500 nM,–,–
CCC(=O)Nc1ccc(Sc2nc(Nc3cc(C)n[nH]3)cc(N3CC(C)(C#N)C3)n2)cc1 [Compound 79],100 to 1000 nM,–,50 to 1000 nM,10 to 500 nM,–,–
CCC(=O)Nc1ccc(Sc2nc(Nc3cc(C)n[nH]3)cc(N3CC(C)(NC(C)(C)C)C3)n2)cc1 [Compound 80],100 to 1000 nM,10 to 500 nM,≤ 50 nM,–,–,–
CCNC(=O)c1ccc(Sc2nc(Nc3cc(C)[nH]n3)cc(N3CCC3)n2)cc1 [Compound 20],100 to 1000 nM,10 to 500 nM,50 to 1000 nM,–,–,–
CC1=NN=C(Nc2cc(N3CCC3)nc(Sc3ccc(NC(=O)c4cccc(C(F)(F)F)c4F)cc3)n2)C1 [Compound 55],100 to 1000 nM,10 to 500 nM,50 to 1000 nM,–,–,–
Cc1cnc(Nc2cc(N3CC(N(C)C)C3)nc(Sc3ccc(NC(=O)C4CC4)cc3)n2)s1 [Compound 1],100 to 1000 nM,10 to 500 nM,50 to 1000 nM,–,–,–
CCC(=O)Nc1ccc(Sc2nc(Nc3cc(C)n[nH]3)cc(N3CC(C)(O)C3)n2)cc1 [Compound 71],100 to 1000 nM,–,≤ 50 nM,10 to 500 nM,–,–
CCC(=O)Nc1ccc(Sc2nc(Nc3cc(C)[nH]n3)cc(N3CCC3)n2)cc1 [Compound 14],100 to 1000 nM,–,–,10 to 500 nM,–,50 to 1000 nM
Cc1cc(Nc2cc(N3CCC3)nc(Sc3ccc(NC(=O)C4CCCCC4)cc3)n2)n[nH]1 [Compound 30],100 to 1000 nM,10 to 500 nM,50 to 1000 nM,–,–,–
Cc1cc(Nc2cc(N3CCC3)nc(Sc3ccc4ccccc4c3)n2)n[nH]1 [Compound 25],1000 to 2000 nM,≤ 10 nM,> 1000 nM,–,–,–
Cc1cnc(Nc2cc(N3CCC3)nc(Sc3ccc(NC(=O)C4CC4)cc3)n2)s1 [Compound 4],100 to 1000 nM,500 to 2000 nM,50 to 1000 nM,–,–,–
